# In ChEMBL document CHEMBL3991601, “The target landscape of clinical kinase drugs” (Science, 2017):
# Calls of active or inactive are those of the source. Rule as the data show it, for most assays here: actives have a measured Kd and inactives only a lower limit.
# Key:
# [1] = target: Mitogen-activated protein kinase kinase kinase kinase 1 (Homo sapiens, UniProt Q92918)
# [2] = target: Receptor-interacting serine/threonine-protein kinase 2 (Homo sapiens, UniProt O43353)
# [3] = target: T1, Dual specificity mitogen-activated protein kinase kinase 3 (Homo sapiens, UniProt P46734)
# T1 sequence (P46734 whole entry): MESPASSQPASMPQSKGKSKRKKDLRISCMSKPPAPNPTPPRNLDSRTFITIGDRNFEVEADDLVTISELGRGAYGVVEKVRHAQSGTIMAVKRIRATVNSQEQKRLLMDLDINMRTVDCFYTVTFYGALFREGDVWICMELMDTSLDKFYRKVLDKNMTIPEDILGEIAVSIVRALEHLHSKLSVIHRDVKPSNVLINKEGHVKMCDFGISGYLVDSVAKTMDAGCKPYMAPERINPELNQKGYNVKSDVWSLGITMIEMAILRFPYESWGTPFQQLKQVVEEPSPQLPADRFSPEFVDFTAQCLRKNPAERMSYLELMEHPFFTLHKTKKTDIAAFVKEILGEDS
# [4] = target: Myosin light chain kinase, smooth muscle (Homo sapiens, UniProt Q15746)
# [5] = target: Serine/threonine-protein kinase B-raf (Homo sapiens, UniProt P15056)
# [6] = target: T2, Serine/threonine-protein kinase TAO1 (Homo sapiens, UniProt Q7L7X3)
# T2 sequence (Q7L7X3 whole entry): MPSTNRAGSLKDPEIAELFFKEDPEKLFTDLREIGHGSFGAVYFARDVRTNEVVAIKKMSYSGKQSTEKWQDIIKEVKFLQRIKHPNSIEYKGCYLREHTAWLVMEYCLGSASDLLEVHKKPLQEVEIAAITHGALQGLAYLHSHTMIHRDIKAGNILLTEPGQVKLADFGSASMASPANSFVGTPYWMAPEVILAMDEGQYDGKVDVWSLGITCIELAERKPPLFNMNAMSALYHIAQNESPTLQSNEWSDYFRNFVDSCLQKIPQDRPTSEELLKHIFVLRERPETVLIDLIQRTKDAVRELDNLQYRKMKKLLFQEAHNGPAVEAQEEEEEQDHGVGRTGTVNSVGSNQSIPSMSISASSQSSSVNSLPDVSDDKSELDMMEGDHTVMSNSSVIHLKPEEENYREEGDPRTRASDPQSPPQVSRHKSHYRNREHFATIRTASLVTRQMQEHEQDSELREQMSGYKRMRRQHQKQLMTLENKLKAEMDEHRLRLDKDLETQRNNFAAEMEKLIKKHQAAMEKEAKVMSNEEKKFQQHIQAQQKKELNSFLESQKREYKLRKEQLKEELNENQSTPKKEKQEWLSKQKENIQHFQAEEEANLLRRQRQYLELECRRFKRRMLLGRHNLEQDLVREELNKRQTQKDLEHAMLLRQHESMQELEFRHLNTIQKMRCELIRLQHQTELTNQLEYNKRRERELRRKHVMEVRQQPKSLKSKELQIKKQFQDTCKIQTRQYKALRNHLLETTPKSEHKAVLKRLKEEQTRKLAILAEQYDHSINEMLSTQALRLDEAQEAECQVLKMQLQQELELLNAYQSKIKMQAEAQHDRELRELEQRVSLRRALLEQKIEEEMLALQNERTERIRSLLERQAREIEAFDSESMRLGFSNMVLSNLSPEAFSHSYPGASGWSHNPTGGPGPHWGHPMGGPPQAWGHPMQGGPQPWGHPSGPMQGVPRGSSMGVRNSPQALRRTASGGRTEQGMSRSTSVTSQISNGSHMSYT
# [7] = target: T3, RNA cytidine acetyltransferase (Homo sapiens, UniProt Q9H0A0)
# T3 sequence (Q9H0A0 whole entry): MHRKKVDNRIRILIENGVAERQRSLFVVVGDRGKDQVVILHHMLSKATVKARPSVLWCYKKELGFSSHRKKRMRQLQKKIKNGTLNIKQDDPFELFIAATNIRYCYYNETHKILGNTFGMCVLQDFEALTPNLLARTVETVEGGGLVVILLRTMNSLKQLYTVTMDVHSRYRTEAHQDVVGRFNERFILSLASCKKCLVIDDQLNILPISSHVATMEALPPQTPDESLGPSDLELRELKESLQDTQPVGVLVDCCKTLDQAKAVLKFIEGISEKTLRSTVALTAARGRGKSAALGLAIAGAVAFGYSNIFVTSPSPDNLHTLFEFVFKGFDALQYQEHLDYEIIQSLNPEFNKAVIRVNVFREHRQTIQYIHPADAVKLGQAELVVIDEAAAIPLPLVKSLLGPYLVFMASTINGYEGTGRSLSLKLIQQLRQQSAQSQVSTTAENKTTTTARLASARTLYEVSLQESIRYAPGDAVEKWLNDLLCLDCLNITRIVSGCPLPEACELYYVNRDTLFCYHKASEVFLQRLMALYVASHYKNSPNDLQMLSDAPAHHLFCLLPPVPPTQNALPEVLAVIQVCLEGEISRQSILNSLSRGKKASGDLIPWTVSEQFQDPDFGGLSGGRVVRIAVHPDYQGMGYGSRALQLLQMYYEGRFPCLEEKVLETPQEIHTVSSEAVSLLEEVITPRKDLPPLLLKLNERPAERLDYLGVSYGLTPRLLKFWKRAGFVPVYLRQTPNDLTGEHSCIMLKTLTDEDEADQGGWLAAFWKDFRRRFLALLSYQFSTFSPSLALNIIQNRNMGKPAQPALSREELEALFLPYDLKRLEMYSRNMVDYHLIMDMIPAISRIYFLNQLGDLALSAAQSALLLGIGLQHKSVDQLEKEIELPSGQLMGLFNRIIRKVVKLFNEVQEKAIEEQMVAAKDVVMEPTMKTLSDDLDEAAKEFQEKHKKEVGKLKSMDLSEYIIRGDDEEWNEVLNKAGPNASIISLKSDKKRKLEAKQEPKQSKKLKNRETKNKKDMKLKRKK
# [8] = target: AP2-associated protein kinase 1 (Homo sapiens, UniProt Q2M2I8)
# [9] = target: Mitogen-activated protein kinase kinase kinase kinase 4 (Homo sapiens, UniProt O95819)
# [10] = target: Tyrosine-protein kinase HCK (Homo sapiens, UniProt P08631)
# [11] = target: Cyclin-dependent kinase 4 (Homo sapiens, UniProt P11802)
# Also: in the data inactive means no Kd found up to 30 µM.
# Tyrosine-protein kinase HCK, sequence (P08631 whole entry): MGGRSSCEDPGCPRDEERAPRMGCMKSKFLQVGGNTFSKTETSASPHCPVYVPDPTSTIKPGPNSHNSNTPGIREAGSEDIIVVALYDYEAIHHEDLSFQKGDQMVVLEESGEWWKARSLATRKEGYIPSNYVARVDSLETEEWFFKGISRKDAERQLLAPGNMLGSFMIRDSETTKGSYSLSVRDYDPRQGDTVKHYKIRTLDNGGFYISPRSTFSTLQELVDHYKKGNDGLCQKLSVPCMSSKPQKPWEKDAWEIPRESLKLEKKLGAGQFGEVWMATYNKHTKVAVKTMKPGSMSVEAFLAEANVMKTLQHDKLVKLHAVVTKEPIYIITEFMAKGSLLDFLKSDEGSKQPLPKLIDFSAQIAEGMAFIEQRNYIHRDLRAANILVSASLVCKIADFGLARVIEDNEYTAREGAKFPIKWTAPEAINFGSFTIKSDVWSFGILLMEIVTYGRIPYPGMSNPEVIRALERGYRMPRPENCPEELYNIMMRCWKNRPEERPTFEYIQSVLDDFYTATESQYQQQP
# Mitogen-activated protein kinase kinase kinase kinase 1, sequence (Q92918 whole entry): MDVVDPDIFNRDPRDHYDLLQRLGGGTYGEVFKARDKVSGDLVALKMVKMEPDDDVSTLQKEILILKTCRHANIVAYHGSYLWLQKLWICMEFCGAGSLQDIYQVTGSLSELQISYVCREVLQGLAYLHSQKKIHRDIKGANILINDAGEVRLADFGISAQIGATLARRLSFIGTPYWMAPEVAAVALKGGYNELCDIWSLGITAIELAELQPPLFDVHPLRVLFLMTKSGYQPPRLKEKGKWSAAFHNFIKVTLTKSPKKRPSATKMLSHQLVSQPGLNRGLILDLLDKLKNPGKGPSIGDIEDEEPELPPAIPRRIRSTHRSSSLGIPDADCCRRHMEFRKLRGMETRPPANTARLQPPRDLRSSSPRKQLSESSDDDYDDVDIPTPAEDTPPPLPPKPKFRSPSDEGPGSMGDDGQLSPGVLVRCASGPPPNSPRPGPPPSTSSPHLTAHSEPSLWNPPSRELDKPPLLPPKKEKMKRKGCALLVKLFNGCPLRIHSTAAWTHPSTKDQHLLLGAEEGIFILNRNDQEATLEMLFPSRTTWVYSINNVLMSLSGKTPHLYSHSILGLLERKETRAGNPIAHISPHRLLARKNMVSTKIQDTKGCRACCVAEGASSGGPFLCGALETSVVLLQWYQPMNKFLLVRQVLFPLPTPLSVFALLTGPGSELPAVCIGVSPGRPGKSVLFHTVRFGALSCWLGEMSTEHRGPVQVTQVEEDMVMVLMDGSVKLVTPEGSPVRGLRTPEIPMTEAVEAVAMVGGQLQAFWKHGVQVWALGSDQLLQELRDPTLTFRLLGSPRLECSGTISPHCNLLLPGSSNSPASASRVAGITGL
# Receptor-interacting serine/threonine-protein kinase 2, sequence (O43353 whole entry): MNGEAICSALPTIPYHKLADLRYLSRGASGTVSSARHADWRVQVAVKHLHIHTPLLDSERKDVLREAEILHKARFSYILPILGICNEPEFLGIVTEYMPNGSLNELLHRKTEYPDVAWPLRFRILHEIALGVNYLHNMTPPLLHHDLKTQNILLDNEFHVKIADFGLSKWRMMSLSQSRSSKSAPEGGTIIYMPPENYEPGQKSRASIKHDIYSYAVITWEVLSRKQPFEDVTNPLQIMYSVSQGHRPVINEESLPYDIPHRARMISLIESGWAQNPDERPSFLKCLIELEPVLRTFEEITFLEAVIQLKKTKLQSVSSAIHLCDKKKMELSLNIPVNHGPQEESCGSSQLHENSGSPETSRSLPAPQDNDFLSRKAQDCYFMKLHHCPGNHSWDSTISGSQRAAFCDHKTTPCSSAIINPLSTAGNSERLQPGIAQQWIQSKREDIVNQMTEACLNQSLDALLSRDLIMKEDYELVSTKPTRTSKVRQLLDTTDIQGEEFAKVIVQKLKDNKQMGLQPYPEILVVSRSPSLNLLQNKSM
# Mitogen-activated protein kinase kinase kinase kinase 4, sequence (O95819 whole entry): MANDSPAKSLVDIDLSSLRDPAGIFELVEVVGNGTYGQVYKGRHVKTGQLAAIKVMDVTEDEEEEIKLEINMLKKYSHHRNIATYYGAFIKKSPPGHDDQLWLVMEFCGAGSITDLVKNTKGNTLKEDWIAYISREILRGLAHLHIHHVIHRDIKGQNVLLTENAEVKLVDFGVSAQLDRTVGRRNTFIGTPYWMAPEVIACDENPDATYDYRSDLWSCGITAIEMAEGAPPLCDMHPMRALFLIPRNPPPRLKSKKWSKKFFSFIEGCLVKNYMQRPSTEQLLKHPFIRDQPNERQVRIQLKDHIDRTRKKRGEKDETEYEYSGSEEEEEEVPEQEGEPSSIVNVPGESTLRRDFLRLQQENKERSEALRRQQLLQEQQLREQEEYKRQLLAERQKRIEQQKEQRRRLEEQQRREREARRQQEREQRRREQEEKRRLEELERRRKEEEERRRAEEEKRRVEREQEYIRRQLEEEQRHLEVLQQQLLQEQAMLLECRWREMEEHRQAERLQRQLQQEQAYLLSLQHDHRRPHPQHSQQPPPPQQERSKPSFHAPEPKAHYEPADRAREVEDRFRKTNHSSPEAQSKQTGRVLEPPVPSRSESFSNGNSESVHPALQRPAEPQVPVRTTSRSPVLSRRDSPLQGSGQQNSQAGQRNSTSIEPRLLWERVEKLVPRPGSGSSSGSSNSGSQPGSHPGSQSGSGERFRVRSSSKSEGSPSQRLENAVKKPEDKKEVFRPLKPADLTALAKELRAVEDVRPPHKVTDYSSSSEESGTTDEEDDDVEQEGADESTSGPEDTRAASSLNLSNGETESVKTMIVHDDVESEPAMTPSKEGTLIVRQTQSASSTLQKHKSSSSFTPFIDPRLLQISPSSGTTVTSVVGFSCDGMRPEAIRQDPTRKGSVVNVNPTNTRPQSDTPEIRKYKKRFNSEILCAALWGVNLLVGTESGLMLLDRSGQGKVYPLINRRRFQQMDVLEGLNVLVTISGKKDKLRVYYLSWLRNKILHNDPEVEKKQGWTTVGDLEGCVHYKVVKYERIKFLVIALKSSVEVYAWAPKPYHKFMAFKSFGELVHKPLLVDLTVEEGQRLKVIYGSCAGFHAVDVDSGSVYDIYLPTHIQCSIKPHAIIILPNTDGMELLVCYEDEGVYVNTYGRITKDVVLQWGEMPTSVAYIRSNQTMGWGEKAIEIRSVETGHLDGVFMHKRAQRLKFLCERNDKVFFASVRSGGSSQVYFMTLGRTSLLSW
# Cyclin-dependent kinase 4, sequence (P11802 whole entry): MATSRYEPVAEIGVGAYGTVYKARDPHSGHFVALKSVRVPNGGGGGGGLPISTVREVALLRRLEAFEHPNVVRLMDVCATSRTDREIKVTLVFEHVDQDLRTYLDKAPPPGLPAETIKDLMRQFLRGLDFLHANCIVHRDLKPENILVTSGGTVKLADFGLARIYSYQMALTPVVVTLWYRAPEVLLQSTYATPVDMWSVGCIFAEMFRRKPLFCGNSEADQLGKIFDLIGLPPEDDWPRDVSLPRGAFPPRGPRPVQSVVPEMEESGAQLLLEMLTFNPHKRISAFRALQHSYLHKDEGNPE
# Serine/threonine-protein kinase B-raf, sequence (P15056 whole entry): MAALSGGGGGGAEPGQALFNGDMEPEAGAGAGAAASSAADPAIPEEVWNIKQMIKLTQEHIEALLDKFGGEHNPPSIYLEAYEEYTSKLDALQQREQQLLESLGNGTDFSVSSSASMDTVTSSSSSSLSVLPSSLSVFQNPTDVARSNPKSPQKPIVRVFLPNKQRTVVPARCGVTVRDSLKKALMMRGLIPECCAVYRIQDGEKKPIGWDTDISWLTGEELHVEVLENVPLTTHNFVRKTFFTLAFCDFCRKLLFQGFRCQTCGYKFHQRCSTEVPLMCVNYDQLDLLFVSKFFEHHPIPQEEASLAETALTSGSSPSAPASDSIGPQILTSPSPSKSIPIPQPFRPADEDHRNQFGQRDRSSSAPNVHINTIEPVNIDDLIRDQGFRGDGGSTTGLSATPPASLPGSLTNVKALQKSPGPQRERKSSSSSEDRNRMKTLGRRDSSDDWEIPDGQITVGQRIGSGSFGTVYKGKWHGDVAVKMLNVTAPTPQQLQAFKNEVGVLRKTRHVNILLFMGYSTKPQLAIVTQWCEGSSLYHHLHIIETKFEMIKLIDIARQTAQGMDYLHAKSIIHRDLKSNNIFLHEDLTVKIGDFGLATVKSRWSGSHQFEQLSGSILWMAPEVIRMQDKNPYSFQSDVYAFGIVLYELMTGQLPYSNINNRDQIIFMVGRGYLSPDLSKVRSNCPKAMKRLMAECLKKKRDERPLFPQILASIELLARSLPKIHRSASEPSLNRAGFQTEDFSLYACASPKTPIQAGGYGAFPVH
SMILES,Kd [1],Kd [2],Kd [3],Kd [4],Kd [5],Kd [6],Kd [7],Kd [8],Kd [9],Kd [10],Kd [11]
CCc1cnn2c(NCc3ccc[n+]([O-])c3)cc(N3CCCC[C@H]3CCO)nc12 [DINACICLIB],> 30 µM (inactive),> 30 µM (inactive),> 30 µM (inactive),> 30 µM (inactive),> 30 µM (inactive),,> 30 µM (inactive),> 30 µM (inactive),,> 30 µM (inactive),
CN1CCN(c2ccc3nc(-c4c(N)c5c(F)cccc5[nH]c4=O)[nH]c3c2)CC1 [DOVITINIB],,,,,,,> 30 µM (inactive),,,,
COC(=O)N[C@@H](C)CNc1nccc(-c2cn(C(C)C)nc2-c2cc(Cl)cc(NS(C)(=O)=O)c2F)n1 [ENCORAFENIB],> 30 µM (inactive),0.323 µM (active),> 30 µM (inactive),> 30 µM (inactive),,> 30 µM (inactive),> 30 µM (inactive),> 30 µM (inactive),> 30 µM (inactive),> 30 µM (inactive),0.112 µM (active)
COC(=O)[C@@]1(O)C[C@H]2O[C@]1(C)n1c3ccccc3c3c4c(c5c6ccccc6n2c5c31)C(=O)NC4 [K-252A],0.452 µM (active),,> 30 µM (inactive),,> 30 µM (inactive),18.8 µM (active),> 30 µM (inactive),0.005 µM (active),0.019 µM (active),> 30 µM (inactive),0.014 µM
COc1cc2nccc(Oc3ccc(NC(=O)NC4CC4)c(Cl)c3)c2cc1C(N)=O [LENVATINIB],> 30 µM (inactive),0.011 µM (active),> 30 µM (inactive),> 30 µM (inactive),,> 30 µM (inactive),> 30 µM (inactive),> 30 µM (inactive),> 30 µM (inactive),> 30 µM (inactive),> 30 µM (inactive)
Cc1cn(-c2cc(NC(=O)c3ccc(C)c(Nc4nccc(-c5cccnc5)n4)c3)cc(C(F)(F)F)c2)cn1 [NILOTINIB],,,,,,,> 30 µM (inactive),,,,
CNC(=O)c1cc(Oc2ccc(NC(=O)Nc3ccc(Cl)c(C(F)(F)F)c3)c(F)c2)ccn1 [REGORAFENIB],> 30 µM (inactive),,> 30 µM (inactive),> 30 µM (inactive),,> 30 µM (inactive),> 30 µM (inactive),> 30 µM (inactive),> 30 µM (inactive),> 30 µM (inactive),> 30 µM (inactive)
CN(C)C(=O)c1cc2cnc(Nc3ccc(N4CCNCC4)cn3)nc2n1C1CCCC1 [RIBOCICLIB],> 30 µM (inactive),> 30 µM (inactive),> 30 µM (inactive),> 30 µM (inactive),> 30 µM (inactive),> 30 µM (inactive),> 30 µM (inactive),> 30 µM (inactive),> 30 µM (inactive),> 30 µM (inactive),
O=C(Nc1cccc(Cl)c1)Nc1ncc(CCNc2ncnc3ccsc23)s1 [SNS-314],> 30 µM (inactive),> 30 µM (inactive),,> 30 µM (inactive),,,> 30 µM (inactive),> 30 µM (inactive),,> 30 µM (inactive),> 30 µM (inactive)
Nc1nc(N)c2nc(-c3cccc(O)c3)c(-c3cccc(O)c3)nc2n1 [TG100-115],,,,,,,> 30 µM (inactive),,,,
COc1cc2nccc(Oc3ccc(NC(=O)Nc4cc(C)on4)c(Cl)c3)c2cc1OC [TIVOZANIB],> 30 µM (inactive),,> 30 µM (inactive),> 30 µM (inactive),,> 30 µM (inactive),> 30 µM (inactive),> 30 µM (inactive),> 30 µM (inactive),> 30 µM (inactive),> 30 µM (inactive)
CCCS(=O)(=O)Nc1ccc(F)c(C(=O)c2c[nH]c3ncc(-c4ccc(Cl)cc4)cc23)c1F [VEMURAFENIB],> 30 µM (inactive),0.427 µM (active),> 30 µM (inactive),> 30 µM (inactive),,> 30 µM (inactive),> 30 µM (inactive),> 30 µM (inactive),> 30 µM (inactive),> 30 µM (inactive),> 30 µM (inactive)
CCn1c(=O)c(-c2cc[nH]n2)cc2c(C)nc(N)nc21 [VOXTALISIB],> 30 µM (inactive),> 30 µM (inactive),> 30 µM (inactive),> 30 µM (inactive),> 30 µM (inactive),,> 30 µM (inactive),> 30 µM (inactive),> 30 µM (inactive),> 30 µM (inactive),> 30 µM (inactive)

# Now from value to compound:
Kd [1],Kd [2],Kd [3],Kd [4],Kd [5],Kd [6],Kd [7],Kd [8],Kd [9],Kd [10],Kd [11],SMILES
> 30 µM (inactive),> 30 µM (inactive),> 30 µM (inactive),> 30 µM (inactive),> 30 µM (inactive),> 30 µM (inactive),> 30 µM (inactive),> 30 µM (inactive),> 30 µM (inactive),> 30 µM (inactive),,Cc1cc([C@@H](C)Nc2ccccc2C(=O)O)c2nc(N3CCOCC3)cc(=O)n2c1 [AZD-6482]
> 30 µM (inactive),,> 30 µM (inactive),,> 30 µM (inactive),,> 30 µM (inactive),0.006 µM (active),,,,Cc1nc(N)sc1-c1ccnc(Nc2ccc(N3CCOCC3)cc2)n1 [CYC-116]
> 30 µM (inactive),> 30 µM (inactive),> 30 µM (inactive),> 30 µM (inactive),> 30 µM (inactive),,> 30 µM (inactive),,,> 30 µM (inactive),> 30 µM (inactive),Cc1cc(Nc2cc(N3CCN(C)CC3)nc(/C=C/c3ccccc3)n2)n[nH]1 [ENMD-2076]
,,,,,,> 30 µM (inactive),,,,,CCn1c(-c2nonc2N)nc2c(C#CC(C)(C)O)ncc(OC[C@H]3CCCNC3)c21 [GSK-690693]
> 30 µM (inactive),> 30 µM (inactive),> 30 µM (inactive),> 30 µM (inactive),> 30 µM (inactive),,> 30 µM (inactive),> 30 µM (inactive),,> 30 µM (inactive),> 30 µM (inactive),OCCn1cc(-c2cnc3nnn(Cc4ccc5ncccc5c4)c3n2)cn1 [PF-04217903]
